Measured values from paper PMC10771296, “Plectasin: from evolution to truncation, expression, and better druggability” (Frontiers in Microbiology, 2023).
In brackets after ≈: the same amount, converted by molar mass. Where a SMILES comes first, the peptide text is derived from it. Bridges are numbered along the chain shown (N, C = ends).

Key:
[1] = system: murine macrophage RAW 264.7; assay: Cytotoxicity, MTT assay; assay type: cell-based, mouse
Protocol: The cytotoxicity of Ple-AB toward the murine macrophage RAW 264.7 (Peking Union Medical College) was tested using the MTT assay ([Wang et al., 2018]). Cells (2.5 × 10^4 CFU/mL) were incubated at 37°C for 24 h, and thereafter Ple-AB at a concentration of 2–256 μg/mL was added for 24 h. The supernatant was washed twice, […] 3-(4,5-dimethylthiazol-2-yl)-2,5-diphenyltetrazolium bromide (MTT) solution was added, and the mixture was incubated for 4 h. The absorbance of each well was measured at 570 nm using a microplate reader. PBS (Acontrol) was used as the control. Survival rate (%) = (A/Acontrol) × 100 was calculated.

S. epidermidis ATCC35984 = assay: MIC/MBC, micro broth dilution; assay type: cell-based
Protocol: (§1) The minimum inhibitory concentration (MIC) of the peptides was assayed using the micro broth dilution method, which is an important indicator of the antibacterial activity of the AMPs ([Liu et al., 2021]). […] The MIC was defined as the lowest concentration of ones at which no visible bacterial growth was observed. All the assays were repeated thrice.

S. dysgalactiae CVCC3938 = assay: MIC/MBC, micro broth dilution; assay type: cell-based
Protocol: as §1

S. agalactiae ATCC13813 = assay: MIC/MBC, micro broth dilution; assay type: cell-based
Protocol: as §1

S. epidermidis ATCC12228 = assay: MIC/MBC, micro broth dilution; assay type: cell-based
Protocol: as §1

[2] = system: S. agalactiae CAU-FRI-2022-02; assay: MIC/MBC, micro broth dilution; assay type: cell-based
Protocol: as §1

[3] = system: S. agalactiae CAU-FRI-2022-01; assay: MIC/MBC, micro broth dilution; assay type: cell-based
Protocol: as §1

E. coli O157 = assay: MIC, micro broth dilution; assay type: cell-based; details: 1 × 10^5 CFU/mL, repeated thrice
Protocol: as §1

S. aureus ATCC43300 [4] = assay: Stability in simulated (artificial) intestinal fluid read out as MIC; assay type: in vitro ADME, Staphylococcus aureus
Protocol: (§2) The stability of Ple-AB was assessed based on its antibacterial activity against S. aureus ATCC43300. Temperature stability was determined by incubation at 20, 40, 60, 80, and 100°C for 1 h ([Li et al., 2020]). The pH stability was determined by incubation in buffers with a pH of 2, 4, 6, 8, and 10 for 4 h ([Yang et al., 2017]). The peptides were incubated with different concentrations of metal ions, serum, artificial gastric fluid, and simulated intestinal fluid to assess their stability in the blood and intestines ([Lyu et al., 2019]). All the treatments were performed in triplicates.

S. aureus ATCC43300 [5] = assay: Serum stability read out as MIC; assay type: in vitro ADME, Staphylococcus aureus; details: 1–8 h, triplicates
Protocol: as §2

[6] = micro broth dilution, 1 × 10^5 CFU/mL, repeated thrice
[7] = bovine mastitis isolate, micro broth dilution, 1 × 10^5 CFU/mL, repeated thrice

With `CC[C@H](C)[C@@H]1NC(=O)[C@H](CO)NC(=O)[C@H](CCCCN)NC(=O)[C@@H]2CSSC[C@@H](C(=O)N[C@@H](Cc3ccc(O)cc3)C(=O)O)NC(=O)[C@H](CCCCN)NC(=O)[C@@H]3CSSC[C@H](NC(=O)[C@H](CCC(N)=O)NC(=O)[C@H](CCSC)NC(=O)[C@H](CCC(=O)O)NC(=O)[C@H](CC(=O)O)NC(=O)[C@H](Cc4c[nH]c5ccccc45)NC(=O)[C@@H]4CCCN4C(=O)[C@@H](NC(=O)CNC(=O)[C@H](Cc4ccccc4)NC(=O)CN)CSSC[C@H](NC(=O)[C@H](Cc4ccc(O)cc4)NC(=O)CNC(=O)CNC(=O)[C@H](CCCCN)NC(=O)[C@H](Cc4ccc(O)cc4)NC(=O)CNC(=O)[C@H](CCCCN)NC1=O)C(=O)N[C@@H](C)C(=O)N[C@@H](CCCCN)C(=O)NCC(=O)NCC(=O)N[C@@H](Cc1ccccc1)C(=O)N[C@@H](C(C)C)C(=O)N3)C(=O)N[C@@H](Cc1c[nH]cn1)C(=O)N[C@@H](CC(N)=O)C(=O)N[C@@H](Cc1c[nH]cn1)C(=O)N2` [Ple-AB] (H-GFGCPWDEMQCHNHCKSIKGYKGGYCAKGGFVCKCY-OH; disulfide 4-26, 11-33, 15-35; N-terminus and C-terminus assumed) the Cytotoxicity ([1]; RAW264.7, 256 μg/mL) was < 1%, the Cell survival rate ([1]; RAW264.7, 2–256 μg/mL, 24 h, MTT, A570) was “above 80%” and the MBC (S. epidermidis ATCC35984; S. epidermidis ATCC35984) was 8 µg/mL (≈ 2 µM). For the same compound, the MIC (S. epidermidis ATCC35984; [6]) was 4 µg/mL (≈ 1 µM), the MBC (S. dysgalactiae CVCC3938; S. dysgalactiae CVCC3938) was 4 µg/mL (≈ 1 µM) and the MIC (S. dysgalactiae CVCC3938; [6]) was 4 µg/mL (≈ 1 µM). It also gave an MBC (S. agalactiae ATCC13813; S. agalactiae ATCC13813) of 4 µg/mL (≈ 1 µM), an MIC (S. agalactiae ATCC13813; [6]) of 4 µg/mL (≈ 1 µM) and an MBC (S. epidermidis ATCC12228; S. epidermidis ATCC12228) of 8 µg/mL (≈ 2 µM). The MIC (S. epidermidis ATCC12228; [6]) was 2 µg/mL (≈ 0.5 µM), the MBC ([2]; S. agalactiae CAU-FRI-2022-02) was 4 µg/mL (≈ 1 µM) and the MIC [2, 7] was 2 µg/mL (≈ 0.5 µM). For the same compound, the MBC ([3]; S. agalactiae CAU-FRI-2022-01) was 32 µg/mL (≈ 8 µM), the MIC [3, 7] was 4 µg/mL (≈ 1 µM) and the MIC (E. coli O157) was >128 µg/mL. For the same compound, the “MIC after Artificial Intestinal Fluid” value (S. aureus ATCC43300 [4]; Artificial Intestinal Fluid (trypsin), 1 h, read-out MIC, triplicates) was 32 µg/mL (≈ 8 µM), the “Remaining share of initial activity after simulated intestinal fluids” value (S. aureus ATCC43300 [4]; simulated intestinal fluids (trypsin), 1 h (lasted for 2 h), from MIC) was “approximately 50%” and the MIC after serum (S. aureus ATCC43300 [5]; Serum (25%)) was 16 µg/mL (≈ 4 µM). For the same compound, the MIC after serum (S. aureus ATCC43300 [5]; Serum (50%)) was 16 µg/mL (≈ 4 µM).
